Laboratory results taken from ChEMBL document CHEMBL3091331, “Aminothiazole-featured pirinixic acid derivatives as dual 5-lipoxygenase and microsomal prostaglandin E2 synthase-1 inhibitors with improved potency and efficiency in vivo” (J Med Chem, 2013).

Key:
[1] = (§1) Inhibition of reactive oxygen species generation in PMA-stimulated human polymorphonuclear leukocytes incubated for 15 mins prior to PMA-challenge by fluorescence assay; type: functional
Homo sapiens = species on record: Homo sapiens; assay: as §1; type: functional
[2] = target: T1, Polyunsaturated fatty acid lipoxygenase ALOX12 (Homo sapiens) (UniProt P18054); assay: Inhibition of 12-lipoxygenase in human polymorphonuclear leukocytes using arachidonic acid as substrate assessed as remaining activity at 10 uM incubated 15 mins prior to substrate addition measured after 10 mins by HPLC analysis relative to control; type: cell-based
T1 sequence (whole entry): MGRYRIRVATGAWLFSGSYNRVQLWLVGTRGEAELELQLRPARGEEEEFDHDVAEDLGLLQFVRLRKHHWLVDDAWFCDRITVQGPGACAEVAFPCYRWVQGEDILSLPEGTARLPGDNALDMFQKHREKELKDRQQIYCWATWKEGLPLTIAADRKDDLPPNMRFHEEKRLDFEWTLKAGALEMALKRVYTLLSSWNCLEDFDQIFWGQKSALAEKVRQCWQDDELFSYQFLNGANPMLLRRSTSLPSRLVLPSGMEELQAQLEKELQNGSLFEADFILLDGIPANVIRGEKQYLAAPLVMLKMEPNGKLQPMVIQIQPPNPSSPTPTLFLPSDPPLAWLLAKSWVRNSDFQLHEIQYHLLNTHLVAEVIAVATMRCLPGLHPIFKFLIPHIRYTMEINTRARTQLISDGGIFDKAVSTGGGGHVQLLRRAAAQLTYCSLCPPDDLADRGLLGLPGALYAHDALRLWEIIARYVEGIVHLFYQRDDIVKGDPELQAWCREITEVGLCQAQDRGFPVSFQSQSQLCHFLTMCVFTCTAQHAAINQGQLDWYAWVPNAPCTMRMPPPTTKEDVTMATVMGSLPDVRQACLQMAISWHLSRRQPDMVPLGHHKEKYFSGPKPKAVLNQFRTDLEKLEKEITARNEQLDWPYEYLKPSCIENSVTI

Mus musculus [3] = assay: Reduction of PGE2 biosynthesis in CD-1 mouse peritonitis model at 10 mg/kg, ip administered 30 mins prior to zymosan-challenge measured after 4 hrs by RIA relative to vehicle-treated control; type: functional; settings: CD-1, ip, route intraperitoneal
[4] = target: T2, Prostaglandin G/H synthase 2 (Homo sapiens) (UniProt P35354); settings: at 10 µM
T2 sequence (whole entry): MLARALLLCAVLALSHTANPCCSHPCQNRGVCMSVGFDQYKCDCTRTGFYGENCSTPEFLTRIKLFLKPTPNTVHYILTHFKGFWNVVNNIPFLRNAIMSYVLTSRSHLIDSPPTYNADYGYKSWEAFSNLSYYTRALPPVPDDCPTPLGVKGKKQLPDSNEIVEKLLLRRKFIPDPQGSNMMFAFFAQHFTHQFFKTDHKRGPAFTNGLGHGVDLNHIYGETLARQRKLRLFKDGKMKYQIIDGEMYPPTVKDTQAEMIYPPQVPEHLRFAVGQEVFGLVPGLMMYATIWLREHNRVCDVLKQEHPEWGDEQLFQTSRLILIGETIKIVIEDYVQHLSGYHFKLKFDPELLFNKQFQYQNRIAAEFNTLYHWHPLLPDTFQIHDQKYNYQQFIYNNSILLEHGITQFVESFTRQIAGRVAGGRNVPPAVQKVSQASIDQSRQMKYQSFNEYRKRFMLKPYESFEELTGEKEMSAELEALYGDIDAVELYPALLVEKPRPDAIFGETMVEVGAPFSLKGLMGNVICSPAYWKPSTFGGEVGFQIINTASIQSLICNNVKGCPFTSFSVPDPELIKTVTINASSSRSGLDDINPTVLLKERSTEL
Description: Inhibition of human recombinant COX2 using arachidonic acid as substrate at 10 uM incubated 5 mins prior to substrate addition measured after 5 mins by HPLC analysis

[5] = target: T3, Polyunsaturated fatty acid lipoxygenase ALOX15 (Homo sapiens) (UniProt P16050); assay: Inhibition of 15-lipoxygenase in human polymorphonuclear leukocytes using arachidonic acid as substrate assessed as remaining activity at 10 uM incubated 15 mins prior to substrate addition measured after 10 mins by HPLC analysis relative to control; type: cell-based
T3 sequence (whole entry): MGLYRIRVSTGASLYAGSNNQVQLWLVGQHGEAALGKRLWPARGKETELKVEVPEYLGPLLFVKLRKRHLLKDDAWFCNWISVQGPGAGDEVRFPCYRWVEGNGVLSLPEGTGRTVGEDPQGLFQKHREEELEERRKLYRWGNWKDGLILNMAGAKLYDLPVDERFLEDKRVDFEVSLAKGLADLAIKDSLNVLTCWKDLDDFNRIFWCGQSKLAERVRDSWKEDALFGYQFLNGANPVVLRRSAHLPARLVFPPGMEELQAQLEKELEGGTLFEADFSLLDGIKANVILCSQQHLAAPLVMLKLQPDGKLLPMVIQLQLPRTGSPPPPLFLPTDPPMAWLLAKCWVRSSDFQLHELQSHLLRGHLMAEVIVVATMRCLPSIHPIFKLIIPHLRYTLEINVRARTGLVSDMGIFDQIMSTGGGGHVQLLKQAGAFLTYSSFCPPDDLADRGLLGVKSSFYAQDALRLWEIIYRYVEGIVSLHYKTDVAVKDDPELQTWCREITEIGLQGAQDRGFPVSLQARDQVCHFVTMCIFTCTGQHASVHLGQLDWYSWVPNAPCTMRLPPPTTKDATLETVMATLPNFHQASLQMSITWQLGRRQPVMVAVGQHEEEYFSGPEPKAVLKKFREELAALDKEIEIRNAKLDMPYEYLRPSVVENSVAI

Mus musculus [6] = assay: Antiinflammatory activity in CD-1 mouse peritonitis model assessed as reduction in neutrophil infiltration at 10 mg/kg, ip administered 30 mins prior to zymosan-challenge measured after 4 hrs by spectrophotometry relative to vehicle-treated control; type: functional; settings: CD-1, ip, route intraperitoneal

CCCCCCC(Sc1nc(Cl)cc(Nc2nc(-c3ccc4ccccc4c3)cs2)n1)C(=O)O (racemic)
IC50 [1]: 8 µM | inhibition (Homo sapiens): Dose-dependent effect | Activity [2]: 168% | inhibition in vivo at 10 mg/kg (Mus musculus [3]): 46% | inhibition [4]: 18% | Activity [5]: 84% | inhibition in vivo at 10 mg/kg (Mus musculus [6]): 45%
